Source: PMC5548745, “Agonist-induced dimer dissociation as a macromolecular step in G protein-coupled receptor signaling” (Nature Communications, 2017)
“Also recorded” adds a separate entry of the source.

Tests used:
TM4 peptide of FZD6 = assay: analytical size-exclusion chromatography of TM peptides; assay type: binding, human; settings: TDW + 0.01% DDM; 500 µM each peptide; Superdex 30; 0.8 ml min^−1; room temperature; 215 nm; 2 h incubation
Experimental: Analytical SEC was performed on an ÄKTA Explorer with a Superdex 30 analytical column (GE Healthcare) equilibrated with TDW + 0.01% DDM. Peptides were eluted with a flow rate of 0.8 ml min^−1 at room temperature. Elution profile was monitored by UV absorbance at 215 nm. For the binding experiments, the peptides were incubated together in TDW + 0.01% DDM at room temperature for 2 h.

FZD6-TM4 = target: T1, FZD6-TM4 (Homo sapiens, UniProt O60353); assay: isothermal titration calorimetry of TM peptides; assay type: binding; settings: 820 µM TM5 or TM5 mut into 165 µM TM4; 0.5% DDM; 20 °C; one set of sites
T1 construct: purchased Pepscan Therapeutics (Lelystad, Netherlands); host or cells: chemical synthesis (Fmoc solid phase)
T1 sequence (O60353 with tags, fused parts or gaps limits assumed): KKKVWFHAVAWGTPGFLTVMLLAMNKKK
Experimental: (§1) CD spectra were recorded using a J-810 spectropolarimeter (Jasco, Easton, MD, USA) in a 0.1 cm quartz cuvette. Far-UV CD spectra were collected over 190–260 nm. ITC measurements were carried out at 20 °C on an ITC (VP–ITC 200, MicroCal). 820 µM FZD6 TM5 and 165 µM FZD6 TM4 were dissolved in 0.5% DDM in water. 2 µl of TM5 peptide were injected into 260 µl TM4 during each titration. The ITC data were analyzed with the Origin 7.0 software.

[1] = circular dichroism of synthetic TM peptides; assay type: physicochemical
Experimental: as §1
Supplementary Figure 5: Circular dichroism (CD) and isothermal titration calorimetry (ITC) experiments for structural analysis of synthetic peptides resembling TM1, 4, 5 and mutant TM5 and of peptide-peptide interactions, related to Figure 3. Synthetic peptides (for sequence see Supplementary Fig. 9) resembling TM1 (a), 4 (b), 5 (c) and mutant TM5 (d) were used for CD experiments in triple distilled water with increasing DDM concentrations (0% DDM – black, 0.01% DDM – blue, 0.1% DDM – green and 0.5% DDM – red). (c)TM5 is unstructured in TDW and begins to gain structure at 0.1% DDM. It forms a clear α-helical structure in 0.5% DDM. The triple mutated TM5 (d) forms an α-helix in a much lower DDM concentration (0.01% DDM). […]

[2] = CD, triple distilled water with 0, 0.01, 0.1, 0.5% DDM

Sequence	SEC elution volume in combination with TM4 (TM4 peptide of FZD6)	ITC affinity (dissociation constant, K D) to TM4 (FZD6-TM4)	DDM concentration at which α-helix forms [1, 2] [%]	DDM concentration at which peptide begins to gain structure [1, 2] [%]	secondary structure in detergent (CD) ([1]; DDM detergent solution, lipophilic environment)	secondary structure in TDW (CD) ([1]; triple distilled water, 0% DDM, 190–260 nm)
WKKLAASAAFVLLPLCLCVFVGLSLLLAGIISKKK [TM5 mut, TM5 peptide with D365A, R368A, Y369A mutations]	did not result in a shift to a higher elution volume	does not interact	0.01			
KKLDASRYFVLLPLCLCVFVGLSLLLAGIISKKK [TM5, synthetic peptide of FZD6 transmembrane helix 5]	eluted at a greater volume than TM4 and TM5 alone	micromolar affinity; also recorded: in the micromolar range	0.5	0.1	structured and α-helical	unstructured
